# Experimental data taken from BindingDB's records for doi:10.7270/Q2T43RPN (Burnham Center For Chemical Genomics, 2012).
# Target: T1, Tyrosine-protein phosphatase non-receptor type 11 (Homo sapiens, UniProt Q06124)
# T1 sequence (Q06124 whole entry): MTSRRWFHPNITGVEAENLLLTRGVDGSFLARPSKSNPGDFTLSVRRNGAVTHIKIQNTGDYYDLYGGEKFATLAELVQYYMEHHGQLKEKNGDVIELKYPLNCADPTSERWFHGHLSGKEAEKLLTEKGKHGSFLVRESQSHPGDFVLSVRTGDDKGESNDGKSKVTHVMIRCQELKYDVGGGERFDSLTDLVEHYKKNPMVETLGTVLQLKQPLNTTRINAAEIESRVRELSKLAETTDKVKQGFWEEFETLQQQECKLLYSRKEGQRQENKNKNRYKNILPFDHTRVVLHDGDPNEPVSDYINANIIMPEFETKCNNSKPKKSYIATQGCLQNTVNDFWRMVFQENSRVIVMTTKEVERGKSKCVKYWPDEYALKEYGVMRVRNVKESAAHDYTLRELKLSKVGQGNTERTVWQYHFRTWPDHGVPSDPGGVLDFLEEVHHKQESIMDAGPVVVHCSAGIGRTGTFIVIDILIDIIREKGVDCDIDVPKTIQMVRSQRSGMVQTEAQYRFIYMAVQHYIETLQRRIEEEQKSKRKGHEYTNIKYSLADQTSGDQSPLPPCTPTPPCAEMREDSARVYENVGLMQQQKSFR
# Test: SHP2 phosphatase inhibition, dose response, selectivity assay for STEP inhibitor project, biochemical (AID 602367)
row,Compound,IC50
1,S=C1N=C(C23CC4CC(CC(C4)C2)C3)CC(c2ccc3c(c2)OCO3)N1 (stereo not given),15 µM
2,"CCOc1cc(CN=Nc2nc(O)c(CC(=O)O)s2)ccc1OCc1ccc(Cl)cc1Cl [2-[2-[(N''E)-N''-[4-(2,4-dichlorobenzyl)oxy-3-ethoxy-benzylidene]hydrazino]-4-keto-2-thiazolin-5-yl]acetic acid]",2.2 µM
3,"C=c1c(O)c(O)c(=C2C(=O)C(=O)C(C)C(=O)C2=O)c(O)c1O (stereo not given) [(3E)-5-hydroxy-6-methyl-3-(2,3,5-trihydroxy-4-methyl-6-oxo-1-cyclohexa-2,4-dienylidene)cyclohex-5-ene-1,2,4-trione]",< 0.16 µM
4,"O=C1C(=O)N(CCCO)C(c2ccc(Br)cc2)C1C(=O)c1ccc(Br)cc1 (stereo not given) [(4E)-5-(4-bromophenyl)-4-[(4-bromophenyl)-oxidanyl-methylidene]-1-(3-oxidanylpropyl)pyrrolidine-2,3-dione]",58.9 µM
5,S=C1N=C2C(=C3SCCS3)CCCC2C(c2ccccc2)N1 (stereo not given) [MLS000516376],5.27 µM
6,CCN(CC)P(=O)(NC(=O)C(Cl)(Cl)Cl)N(CC)CC [MLS000564159],3.91 µM
7,CSc1ccc(CN=Nc2ccc(S(=O)(=O)Nc3ccccc3C(=O)O)cc2[N+](=O)[O-])cc1 [MLS002245633],1.11 µM
8,O=C(N/N=C/C1C=CC=CC1=O)c1cccc([N+](=O)[O-])c1 (stereo not given) [MLS002667988],2.39 µM
9,COc1ccc(OC)c(-n2c(O)c3o[nH]c(-c4ccccc4Cl)c-3c2=O)c1 [SMR000046218],0.469 µM
10,"COc1ccc(CN=Nc2nc(O)c(CC(=O)O)s2)cc1OCc1ccc(Cl)cc1Cl [[2-({3-[(2,4-dichlorobenzyl)oxy]-4-methoxybenzylidene}hydrazono)-4-oxo-1,3-thiazolidin-5-yl]acetic acid]",4.42 µM
